Several values for one entry are separate records, joined by “and”; a condition that tells them apart may be missing. Identical values can stand only once. Each block holds one molecule with its values, some of them ahead of it.
System: 885512-296-R-J2-PDC complex spheroid viability
Experiment: Anticancer human tumor 885512-296-R-J2-PDC patient-derived breast carcinoma cell line growth inhibition [GQUAD]
Conditions: for viability, T/C: stronger effect = lower value
Source text: DNA G-quadruplex Stabilizer Agents in Combinations in Complex Spheroids
A high-throughput screen of multi-cell type tumor spheroids was designed to identify active combinations of DNA G-quadruplex stabilizer agents and targeted small molecules. Complex spheroids include a stromal component modeled by human endothelial cells (HUVEC) and fibroblasts modeled by human mesenchymal stem cells (MSCs). The concentration ranges selected for each drug and investigational agent were based upon clinically achievable concentrations if the clinical Cmax of the agent was known.
Compounds. The drugs and investigational agents: pidnarulex (CX-5461; NSC782164), APTO-253 (NSC789042), BRACO-19 (NSC847499), peposertib (NSC802822), ceralasertib (NSC780249), elimusertib (NSC800525), camonsertib (NSC841442), AZD-1390 (NSC803789), olaparib (NSC753686), talazoparib (NSC767125), ART-558 (NSC835418), sotorasib (NSC818433), MRTX-1133 (NSC836407), SN-38 (NSC673596), topotecan (NSC609699), etoposide (NSC141540), doxorubicin (NSC123127), gemcitabine (NSC613327), 5-fluorouracil (NSC19893), paclitaxel (NSC125973), vemurafenib (NSC761431), panobinostat (NSC761190), R-306465 (JNJ-16241199; NSC773264), adavosertib (NSC754352), TP-3654 (NSC805149), carboplatin (NSC241240), KSQ-4279 (NSC840948), and staurosporine (NSC755774) were obtained from the National Cancer Institute (NCI) Developmental Therapeutics Program Chemical Repository (34). The FDA-approved anticancer drug set is available from the NCI Developmental Therapeutics Program. […] The stock solutions were prepared in dimethyl sulfoxide (DMSO, Sigma-Aldrich, St. Louis, MO, cat. D2650) at 800-fold the tested concentration and stored at -70 degrees C prior to their use. All drugs and investigational agents were tested over a range starting from a high concentration at or near the clinical Cmax and decreasing in half-log increments. If the clinical Cmax for an agent had not been determined, the highest concentration tested was 10 microM.
2.3 Cell Culture. All cells were maintained in an incubator at 37 degrees C and 5% CO2 with 95% humidity. The PDC lines were cultured according to standard operating procedures established by the NCI PDMR. All PDCs were thawed and cultured in Matrigel-coated flasks prepared with a working solution of 1X Ham's F-12 nutrient mix, without supplementation (Invitrogen, cat. 11765054), 100 U/mL penicillin-streptomycin (Invitrogen, cat. 15140122), and 2.5% Matrigel (Corning Inc., cat. 354248) for the first three passages. The 857933-349-R-J2-PDC line was cultured in 6C/Colon 1B media, which includes advanced DMEM/F-12 (Thermo Fisher Scientific, cat. 12634028), 10 mM HEPES (Thermo Fisher Scientific, cat. 15630080), 1X GlutaMAX supplement (Thermo Fisher Scientific, cat. 35050061), 0.1 mg/mL primocin (InvivoGen, cat. ant-pm-2), 10% defined fetal bovine serum, heat inactivated (HyClone Laboratories Inc., cat. SH30070.03HI), 50% L-WRN conditioned media (ATCC, cat. CRL-3276), 1.25 mM N-Acetyl-L-cysteine (Sigma-Aldrich, cat. A9165), 10 mM nicotinamide (Sigma-Aldrich, cat. N0636), 1X B-27 supplement (Thermo Fisher Scientific, cat. 17504044), 1X N-2 supplement (Thermo Fisher Scientific, cat. 17502048), 10 microM Y-27632 dihydrochloride (Tocris Bioscience, cat. 1254), and 50 ng/mL human EGF recombinant protein (Thermo Fisher Scientific, cat. PHG0311). The 485176-168-R4-J1-PDC line was cultured in Panc media, which includes all 6C/Colon 1B media components plus 100 ng/mL human FGF-10 (Thermo Fisher Scientific, cat. 100-26), 500 nM SB-431542 (Selleckchem, cat. S1067), and gastrin (Tocris, cat. 3006).
[…]

[1] = curve of first compound, second compound 0.0316 µM
[2] = curve of first compound, second compound 0.1 µM
[3] = curve of first compound, second compound 0.316 µM
[4] = curve of first compound, second compound 1 µM
[5] = curve of first compound, second compound 3.16 µM
[6] = curve of first compound, second compound 10 µM
[7] = second compound 0.0316 µM, first compound 0.0316 µM
[8] = second compound 0.0316 µM, first compound 0.1 µM
[9] = second compound 0.0316 µM, first compound 0.316 µM
[10] = second compound 0.0316 µM, first compound 1 µM
[11] = second compound 0.0316 µM, first compound 3.16 µM
[12] = second compound 0.0316 µM, first compound 10 µM
[13] = second compound 0.1 µM, first compound 0.0316 µM
[14] = second compound 0.1 µM, first compound 0.1 µM
[15] = second compound 0.1 µM, first compound 0.316 µM
[16] = second compound 0.1 µM, first compound 1 µM
[17] = second compound 0.1 µM, first compound 3.16 µM
[18] = second compound 0.1 µM, first compound 10 µM
[19] = second compound 0.316 µM, first compound 0.0316 µM
[20] = second compound 0.316 µM, first compound 0.1 µM
[21] = second compound 0.316 µM, first compound 0.316 µM
[22] = second compound 0.316 µM, first compound 1 µM
[23] = second compound 0.316 µM, first compound 3.16 µM
[24] = second compound 0.316 µM, first compound 10 µM
[25] = second compound 1 µM, first compound 0.0316 µM
[26] = second compound 1 µM, first compound 0.1 µM
[27] = second compound 1 µM, first compound 0.316 µM
[28] = second compound 1 µM, first compound 1 µM
[29] = second compound 1 µM, first compound 3.16 µM
[30] = second compound 1 µM, first compound 10 µM
[31] = second compound 3.16 µM, first compound 0.0316 µM
[32] = second compound 3.16 µM, first compound 0.1 µM
[33] = second compound 3.16 µM, first compound 0.316 µM
[34] = second compound 3.16 µM, first compound 1 µM
[35] = second compound 3.16 µM, first compound 3.16 µM
[36] = second compound 3.16 µM, first compound 10 µM
[37] = second compound 10 µM, first compound 0.0316 µM
[38] = second compound 10 µM, first compound 0.1 µM
[39] = second compound 10 µM, first compound 0.316 µM
[40] = second compound 10 µM, first compound 1 µM
[41] = second compound 10 µM, first compound 3.16 µM
[42] = second compound 10 µM, first compound 10 µM
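Note: spheroids exposed to the compounds for one week.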
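Throughout, for viability, T/C: percent of tumor spheroid viability relative to DMSO vehicle control wells.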

- IC50 [1]: < 31.6 nM
- IC50 [2]: < 31.6 nM
- IC50 [3]: < 31.6 nM
- IC50 [4]: < 31.6 nM
- IC50 [5]: < 31.6 nM
- IC50 [6]: < 31.6 nM
Structure (SMILES): CC1COCCN1c1cc(C2(O)CC3CCC(C2)O3)c2cnn(-c3ccn[nH]3)c2n1 (stereo not given) + Cc1cnc(CNC(=O)c2c(=O)c3ccc(N4CCCN(C)CC4)nc3n3c2sc2ccccc23)cn1
- viability, T/C [7]: 5.92%
- viability, T/C [8]: 3.36%
- viability, T/C [9]: 3.06%
- viability, T/C [10]: 4.49%
- viability, T/C [11]: 5.92%
- viability, T/C [12]: 7.8%
- viability, T/C [13]: 5.95%
- viability, T/C [14]: 3.36%
- viability, T/C [15]: 3.12%
- viability, T/C [16]: 4.44%
- viability, T/C [17]: 6.08%
- viability, T/C [18]: 7%
- viability, T/C [19]: 4.59%
- viability, T/C [20]: 4.72%
- viability, T/C [21]: 4.92%
- viability, T/C [22]: 5.25%
- viability, T/C [23]: 7.22%
- viability, T/C [24]: 7.55%
- viability, T/C [25]: 6.13%
- viability, T/C [26]: 4.5%
- viability, T/C [27]: 5.8%
- viability, T/C [28]: 6.61%
- viability, T/C [29]: 7.78%
- viability, T/C [30]: 6.44%
- viability, T/C [31]: 2.58%
- viability, T/C [32]: 3.35%
- viability, T/C [33]: 4.73%
- viability, T/C [34]: 4.41%
- viability, T/C [35]: 2.5%
- viability, T/C [36]: 1.93%
- viability, T/C [37]: 0.03%
- viability, T/C [38]: 0.09%
- viability, T/C [39]: 0.14%
- viability, T/C [40]: 0.07%
- viability, T/C [41]: 0.12%
- viability, T/C [42]: 0.12%

Structure (SMILES): Nc1ccn(C2OC(CO)C(O)C2(F)F)c(=O)n1 (stereo not given) + Cc1[nH]c2ccc(F)cc2c1-c1nc2c3cccnc3c3ncccc3c2[nH]1
- IC50 [1]: < 31.6 nM
- IC50 [2]: < 31.6 nM
- IC50 [3]: < 31.6 nM
- IC50 [4]: < 31.6 nM
- IC50 [5]: < 31.6 nM
- IC50 [6]: < 31.6 nM
- viability, T/C [7]: 14.6%
- viability, T/C [8]: 3.03%
- viability, T/C [9]: 2.43%
- viability, T/C [10]: 3.01%
- viability, T/C [11]: 3.2%
- viability, T/C [12]: 2.56%
- viability, T/C [13]: 16.3%
- viability, T/C [14]: 3.26%
- viability, T/C [15]: 3.63%
- viability, T/C [16]: 3.04%
- viability, T/C [17]: 3%
- viability, T/C [18]: 3.74%
- viability, T/C [19]: 14.6%
- viability, T/C [20]: 3.44%
- viability, T/C [21]: 3.02%
- viability, T/C [22]: 2.57%
- viability, T/C [23]: 2.96%
- viability, T/C [24]: 3.36%
- viability, T/C [25]: 8.48%
- viability, T/C [26]: 2.45%
- viability, T/C [27]: 2.51%
- viability, T/C [28]: 2.76%
- viability, T/C [29]: 2.94%
- viability, T/C [30]: 2.65%
- viability, T/C [31]: 2.21%
- viability, T/C [32]: 1.43%
- viability, T/C [33]: 1.74%
- viability, T/C [34]: 1.98%
- viability, T/C [35]: 1.96%
- viability, T/C [36]: 1.86%
- viability, T/C [37]: 1.33%
- viability, T/C [38]: 1.29%
- viability, T/C [39]: 1.17%
- viability, T/C [40]: 1.35%
- viability, T/C [41]: 1.44%
- viability, T/C [42]: 1.08%

Structure (SMILES): C=CCn1c(=O)c2cnc(Nc3ccc(N4CCN(C)CC4)cc3)nc2n1-c1cccc(C(C)(C)O)n1
- viability, T/C (compound 0.0316 µM): 94.9% and 110% and 103%
- viability, T/C (compound 0.1 µM): 92.2% and 91.9% and 92.6%
- viability, T/C (compound 0.316 µM): 99.1% and 52.3% and 57.8%
- viability, T/C (compound 1 µM): 125% and 7.26% and 11%

- IC50 (curve of compound): < 31.6 nM
Structure (SMILES): Nc1ccn(C2OC(CO)C(O)C2(F)F)c(=O)n1 (stereo not given)
- viability, T/C (compound 0.0316 µM): 14.6% and 8.23% and 13.1%
- viability, T/C (compound 0.1 µM): 4.17% and 2.77% and 2.12%
- viability, T/C (compound 0.316 µM): 2.96% and 2.39% and 3.6%
- viability, T/C (compound 1 µM): 3.23% and 3.33% and 3.21%
- viability, T/C (compound 3.16 µM): 4.11% and 2.94% and 3.73%
- viability, T/C (compound 10 µM): 3.17% and 3.4% and 3.47%
